# Entries after “also recorded” stand apart in the source; their conditions may differ.
# How the values were obtained:
# G. pallida J2s [1] = experiment: Root invasion assay on potato hairy root cultures; type: in vivo, Globodera pallida; settings: J2s pre-incubated 24 h with 100 μM compound
# Experimental: J2s of G. pallida were first sterilised with 0.1% chlorhexidine digluconate, 0.5 mg/ml CTAB for 25 mins and washed three times with sterile 0.01% Tween-20. The J2s were then incubated with gentle agitation for 24 hours in water, 100 μM reserpine phosphate, 100 μM methiothepin, 100 μM CPA or 2 mM fluoxetine prior to inoculation of potato hairy root cultures with 25 J2s per infection point and 3 infection points per root system. Hairy root cultures were generated using Agrobacterium rhizogenes R1000 and multiplied. Individual root systems of equivalent size growing on 9 cm plates containing Murashige and Skoog basal medium (Duchefa, Suffolk, UK) with 2% sucrose were selected for inoculation. Nine to 11 replicate plates were used for each treatment or control. Roots were stained with acid fuchsin 13 days after infection and the number of nematodes in each root system counted. Each complete invasion assay was carried out on two separate occasions.
# C. elegans TPH-1 = experiment: Pharyngeal pumping of C. elegans on food with CPA; type: in vivo
# Experimental: (§1) Experiments were performed on one day old age synchronised worms by picking L4 stage a day before the assay. Due to the translucent nature of the worm, pharyngeal pumping may be scored in the intact animals by counting the movements of the grinder in the terminal bulb: one complete up and down motion is counted as a single pharyngeal pump. The number of pharyngeal pumps was counted on E. coli OP50 in N2, in the mutants tph-1 (mg280), ser-7 (tm1325), cat-1 (ok411) and in mutants with ectopic expression of C. elegans (ce) or G. pallida (ppn) tph-1, ser-7 or cat-1 in all of the neurons (Psnb-1 promoter).
# (§2) To test the effects of CPA (4-chloro-DL-phenylalanine methyl ester hydrochloride) on pharyngeal pumping one day old adult C. elegans for N2, tph-1 (mg280) and tph-1-1 (mg280) with ectopic expression of C. elegans (ce) or G. pallida (Gpa) tph-1 were placed onto E. coli OP50 containing CPA on NGM plates and the number of pharyngeal pumps on food per min was scored after 2 and 18 hours.
# G. pallida TPH-1 = experiment: Pharyngeal pumping on food with CPA, tph-1 (mg280) expressing G. pallida tph-1; type: in vivo, Globodera pallida; settings: tph-1 mutant expressing G. pallida tph-1
# Experimental: as §1, §2
# G. pallida J2s [2] = experiment: G. pallida stylet thrusting assay; type: in vivo, Globodera pallida; settings: for effect on stylet behaviour: concentrations up to 10 mM (data not shown); for stimulation of stylet thrusting by the compound itself: J2s in compound alone; for exposure time at which maximal stylet response was seen / maximally effective concentration for stylet thrusting / effect on S-shaped posture and reduced movement induced by fluoxetine: in vivo; for effect on stylet response to fluoxetine / effect on stylet response to exogenous serotonin: 24 h presoak
# Experimental: Stylet thrusting assays were conducted in 20 mM HEPES buffered ddH2O, with pH adjusted to 7.4 with NaOH. J2s were pipetted into 3 ml of the test solutions in 30 mm petri dishes and the number of stylet thrusts per minute was counted at various time points as stated in figure legends. A single movement of the stylet knob forwards and then backwards to its original position was counted as one stylet thrust. Control assays were conducted in the presence of either 20 mM HEPES alone or 20 mM HEPES with drug vehicle, as indicated in figure legends. All assays were conducted at room temperature (20-22° C.). All drug solutions were made up on the day of use. Each solution contained 0.01% bovine serum albumin to prevent worms from sticking to the Petri dish. Reserpine was dissolved in 100% acetone and then 1 in 200 dilution was made using Hepes buffer (pH 7.4). […] Final concentration 50 μM reserpine.
# For experiments in which J2s were pre-treated with reserpine phosphate or CPA, the worms were pre-soaked in the drug solutions for 24 hours.
# C. elegans = experiment: Pharyngeal pumping of intact C. elegans off food with fluoxetine; type: in vivo, Caenorhabditis elegans
# Experimental: as §1
# To test the effects of fluoxetine one day old C. elegans for N2, cat-1 (ok411) and cat-1 (ok411) with ectopic expression of C. elegans (ce) or G. pallida (Gpa) cat-1 were placed onto unseeded NGM plates containing fluoxetine and the number of pharyngeal pumps per min was scored after 1 h and 18 h.
# G. pallida = experiment: Hatching of J2s from cysts/eggs; parameters: species or system Globodera pallida; settings: in vivo
# G. pallida MOD-1 = experiment: Thrashing paralysis assay, mod-1 (ok103) expressing G. pallida mod-1; type: in vivo, Globodera pallida; settings: worms expressing G. pallida mod-1; 10 μM methiothepin; 33 mM serotonin
# Experimental: (§3) For the methiothepin treatment group, 10 μM methiothepin was included in the wells of the microtitre plate. Wild type (N2), mod-1 (ok103), and the transgenic strains expressing gpa-mod-1 in mod-1 (ok103) were tested.
# G. pallida SER-7 = G. pallida SER-7 (Globodera pallida, UniProt A0A183BS20, DEL280-286/G462A/H333Q/S454N/S6T/Y334H); experiment: Cut head pharyngeal pumping assay, ser-7 (tm1325) expressing Gpa-ser-7; settings: 100 nM; transgenics expressing G. pallida ser-7; 100 μM serotonin
# C. elegans MOD-1 = experiment: Thrashing paralysis assay (serotonin-induced paralysis), wild type; type: in vivo, Caenorhabditis elegans; settings: wild type worms; 10 μM methiothepin; 33 mM serotonin
# Experimental: as §3
# C. elegans SER-7 = target: T1, C. elegans SER-7 (Caenorhabditis elegans, UniProt Q22895); experiment: Cut head pharyngeal pumping assay
# T1 sequence (Q22895 1-435): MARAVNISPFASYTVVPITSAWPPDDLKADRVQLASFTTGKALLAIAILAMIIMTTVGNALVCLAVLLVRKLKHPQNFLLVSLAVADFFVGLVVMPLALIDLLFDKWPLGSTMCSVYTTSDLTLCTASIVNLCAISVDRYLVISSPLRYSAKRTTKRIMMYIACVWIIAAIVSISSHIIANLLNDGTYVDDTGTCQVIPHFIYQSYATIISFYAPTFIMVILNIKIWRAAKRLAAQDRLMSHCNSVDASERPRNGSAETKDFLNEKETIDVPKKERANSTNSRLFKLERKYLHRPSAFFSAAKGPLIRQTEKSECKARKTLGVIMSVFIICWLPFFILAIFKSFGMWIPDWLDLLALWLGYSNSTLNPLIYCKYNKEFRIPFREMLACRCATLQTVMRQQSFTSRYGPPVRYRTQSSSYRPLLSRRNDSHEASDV
# Experimental: Additionally, an intact pharynx containing a terminal bulb was dissected from the rest of the worm with a razor blade. The pharyngeal preparation was placed into 3 ml of Dent's saline (with 0.1% BSA and the drugs 5-HT or methiothepin) in a 25 mm Petri dish. Pharyngeal pumps were scored visually, as for the intact worms, for 1 min. For controls, the pharyngeal pumping was scored in Dent's saline (0.1% BSA) without drugs with appropriate vehicle controls.
# G. pallida J2s [3] = experiment: G. pallida dispersal (motility) assay on agar arena; type: in vivo, Globodera pallida; settings: pre-incubation with 50 μM for 18 h
# Experimental: Dispersal assays were performed on 5 cm plates filled with 10 ml of 2% agarose. […] For the reserpine assays worms were pre-soaked in the compound for 18 h. On the day of the assay 100 μl of potato root diffusate (PRD), ddH2O or drug solvents were spread onto the plates and the plates were sealed with the parafilm. The grid with six equal concentric circles was placed under the assay plates and the centre was marked with a dot. Around 50-100 G. pallida J2s or C. elegans L2 s were pipetted with 5 μl of ddH2O onto the centre (origin), the plate was re-sealed and the total number of worms was counted as soon as the liquid had absorbed. The number of J2s in each concentric circle was counted after 1, 2 and 24 hours.
# Sequence of G. pallida SER-7 (A0A183BS20 whole entry, stated change not applied): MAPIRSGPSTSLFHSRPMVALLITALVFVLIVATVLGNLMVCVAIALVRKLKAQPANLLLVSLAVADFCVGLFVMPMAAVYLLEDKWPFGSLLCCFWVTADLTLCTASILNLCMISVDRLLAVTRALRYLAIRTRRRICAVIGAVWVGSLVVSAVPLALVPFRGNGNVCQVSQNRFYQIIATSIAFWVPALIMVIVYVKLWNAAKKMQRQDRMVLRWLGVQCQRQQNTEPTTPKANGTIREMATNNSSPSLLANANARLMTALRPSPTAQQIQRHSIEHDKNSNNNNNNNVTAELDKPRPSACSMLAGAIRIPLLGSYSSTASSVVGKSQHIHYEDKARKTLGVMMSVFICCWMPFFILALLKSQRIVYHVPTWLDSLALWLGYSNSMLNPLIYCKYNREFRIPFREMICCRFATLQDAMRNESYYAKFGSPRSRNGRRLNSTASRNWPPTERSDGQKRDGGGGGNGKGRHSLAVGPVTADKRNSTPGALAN
smiles,measurement,setting,value
"COC(=O)C(N)Cc1ccc(Cl)cc1.Cl (racemic) [CPA, 4-chloro-DL-phenylalanine methyl ester hydrochloride]",number of nematodes present in the roots 13 days after inoculation (root invasion),G. pallida J2s [1],significantly reduced
same,inhibition of pharyngeal pumping,C. elegans TPH-1; tph-1 mutant,did not cause any further reduction
same,ability to inhibit pharyngeal pumping,C. elegans TPH-1; tph-1 mutant expressing C. elegans tph-1,restored
same,inhibition of pharyngeal pumping,"C. elegans TPH-1; wild type C. elegans, CPA 10 mM",significantly inhibited
same,ability to inhibit pharyngeal pumping,G. pallida TPH-1,restored
same,stylet thrusting in response to fluoxetine,"G. pallida J2s [2]; 10 mM CPA overnight, 2 mM fluoxetine 30 min",reduced stylet thrusting
same,stylet thrusting in response to serotonin,"G. pallida J2s [2]; 10 mM CPA overnight, 10 mM serotonin 30 min",maintained their response
NCCc1ccc(O)c(O)c1 [Dopamine],effect on stylet behaviour,G. pallida J2s [2],no effect
CNCCC(Oc1ccc(C(F)(F)F)cc1)c1ccccc1 (stereo not drawn) [fluoxetine],stimulation of pharyngeal pumping in the absence of food,"C. elegans; 1 mM and 2 mM, or longer exposure at 500 μM",did not cause a stimulation
same,stimulation of pharyngeal pumping in the absence of food,C. elegans; C. elegans cat-1 mutant,not observed
same,exposure time of maximal stimulation of pharyngeal pumping,C. elegans; absence of food,1 h
same,low dose stimulation of pharyngeal pumping,C. elegans; cat-1 mutant expressing ppn-cat-1 (G. pallida),restored
same,low dose stimulation of pharyngeal pumping,C. elegans; cat-1 mutant expressing wild-type C. elegans cat-1,restored
same,stimulation of pharyngeal pumping in the absence of food,"C. elegans; wild type, 5 to 500 μM",concentration-dependent
same,stimulation of stylet thrusting by the compound itself,G. pallida J2s [2],time-dependent and concentration-dependent stimulation; also recorded: stimulatory effects
same,exposure time at which maximal stylet response was seen,G. pallida J2s [2],30 min
same,maximally effective concentration for stylet thrusting,G. pallida J2s [2],2 mM
same,shape of stylet concentration response curve,G. pallida J2s [2]; response after 1 h,bell-shaped
CN(C)CCCN1c2ccccc2CCc2ccccc21 [imipramine],stimulation of stylet thrusting by the compound itself,G. pallida J2s [2],stimulatory effects
CSc1ccc2c(c1)C(N1CCN(C)CC1)Cc1ccccc1S2 (stereo not drawn) [methiothepin],number of nematodes present in the roots 13 days after inoculation (root invasion),G. pallida J2s [1],blocked
same,emergence of J2s from eggs (hatching),G. pallida,potently inhibited
same,effect on mod-1 dependent serotonin-induced paralysis,G. pallida MOD-1,blocked
same,inhibition of stimulatory effect of serotonin on pumping,G. pallida SER-7,around 50%
same,effect on mod-1 dependent serotonin-induced paralysis,C. elegans MOD-1,blocked
same,antagonism of serotonin-induced stylet thrusting,G. pallida J2s [2]; G. pallida J2s,potent antagonist
same,effect on S-shaped posture and reduced movement induced by fluoxetine,G. pallida J2s [2],blocked
same,inhibition of stimulatory effect of serotonin on pumping,"C. elegans SER-7; 100 nM, transgenics expressing C. elegans ser-7, 100 μM serotonin",around 50%
NCC(O)c1ccc(O)cc1 (stereo not drawn) [octopamine],effect on stylet behaviour,G. pallida J2s [2],no effect
"COC(=O)[C@H]1[C@H]2C[C@@H]3c4[nH]c5cc(OC)ccc5c4CCN3C[C@H]2C[C@@H](OC(=O)c2cc(OC)c(OC)c(OC)c2)[C@@H]1OC [reserpine, (3β,16β,17α,18β,20α)-11,17-Dimethoxy-18-[(3,4,5-trimethoxybenzoyl)oxy]yohimban-16-carboxylic acid methyl ester]",dispersal from origin of agar arena (motility),G. pallida J2s [3],significant reduction
same,number of nematodes present in the roots 13 days after inoculation (root invasion),G. pallida J2s [1],significantly decreased
same,block of stimulatory effect of fluoxetine on stylet,"G. pallida J2s [2]; 5 μM, 24 h soak, 2 mM fluoxetine",near-complete block
same,recovery of fluoxetine-induced stylet response after washing,"G. pallida J2s [2]; 50 μM for 24 h, then water wash up to 22 hours",No recovery
same,block of stimulatory effect of fluoxetine on stylet,"G. pallida J2s [2]; 50 μM, 24 h soak, 2 mM fluoxetine",near-complete block
same,exposure time at which reduction of fluoxetine-stimulated stylet activity was evident,"G. pallida J2s [2]; 50 μM, 2 mM fluoxetine",4 h
same,exposure time to full block of fluoxetine-stimulated stylet activity,"G. pallida J2s [2]; 50 μM, 2 mM fluoxetine",8 h
same,exposure time to full inhibition of fluoxetine-stimulated stylet activity,"G. pallida J2s [2]; 50 μM, 2 mM fluoxetine 30 mins (FIG. 14B)",8 h
same,effect on stylet response to fluoxetine,G. pallida J2s [2]; 2 mM fluoxetine 30 min,concentration-dependent inhibition
same,effect on stylet response to fluoxetine,"G. pallida J2s [2]; 2 mM fluoxetine 30 min, listed as Reserpine",potently blocked
same,effect on stylet response to exogenous serotonin,G. pallida J2s [2]; 10 mM serotonin 30 min,no effect
same,effect on stylet response to exogenous serotonin,"G. pallida J2s [2]; 10 mM serotonin 30 min, listed as Reserpine",but not the response to serotonin
same,lowest concentration giving significant reduction of fluoxetine-induced stylet activity,"G. pallida J2s [2]; 24 h soak, 2 mM fluoxetine 30 min",5 nM
same,effect on S-shaped posture and reduced movement induced by fluoxetine,G. pallida J2s [2],blocked
same,independent stimulatory effect on stylet activity,G. pallida J2s [2]; reserpine alone,no independent stimulatory effect
"NCCc1c[nH]c2ccc(O)cc12 [serotonin, 5-hydroxytryptamine]",stimulation of stylet thrusting by the compound itself,G. pallida J2s [2],time-dependent and concentration-dependent stimulation
same,exposure time at which maximal stylet response was seen,G. pallida J2s [2],30 min
same,maximally effective concentration for stylet thrusting,G. pallida J2s [2],10 mM
same,concentration above which stylet concentration-response curve reached maximum plateau,G. pallida J2s [2]; response after 1 h,above 2 mM
same,EC50,"C. elegans SER-7; EC50, activation of pharyngeal pumping, transgenic psnb-1::Ce-ser-7a, cut head, 95% confidence 457 nM to 1.34 μM",0.782 µM
same,EC50,"C. elegans SER-7; EC50, increase in pharyngeal pumping, wild type worms, cut head, 95% confidence 164 nM to 304 nM",0.223 µM
same,pharyngeal pumping response,"C. elegans SER-7; ser-7 (tm1325) mutants, cut head, up to 100 μM",did not respond
NCCc1ccc(O)cc1 [tyramine],effect on stylet behaviour,G. pallida J2s [2],no effect
